The term IC50 denotes the point on the concentration scale where inhibition reaches its midpoint. Broadly, the melting point is the temperature of the solid-liquid transition.

Structures are written as SMILES. Structures can show the parent of a compound that is named as a salt. Some results are limits rather than exact numbers.

Here are results for 13 molecules from patent publication US20110263593A1, “NOVEL IMIDAZO[1,2-a]PYRIMIDINE DERIVATIVES, METHOD FOR THE PREPARATION THEREOF, USE THEREOF AS MEDICAMENTS, PHARMACEUTICAL COMPOSITIONS AND NOVEL USE, IN PARTICULAR AS MET INHIBITORS” (sanofi-aventis, priority 2008, published 2011).

For data set [1], the system named is HCT116 cells and MKN45 cells. Kind of data set: Test C: measurement of cell proliferation by 14C-thymidine pulse. Format: cell-based. The following applies: 14C-thymidine incorporation, 96 h of treatment; cell line not stated (HCT116 and MKN45 in method). As for the experimental part:
C) Test C: Measurement of cell proliferation by ^14C-thymidine pulse
The cells are seeded into Cytostar 96-well plates in 180 μl for 4 hours at 37° C. and 5% CO2: HCT116 cells at a rate of 2500 cells per well in DMEM medium+10% foetal calf serum+1% L-glutamine and MKN45 cells at a rate of 7500 cells per well in RPMI medium+10% foetal calf serum+1% L-glutamine. After these 4 hours of incubation, the products are added in 10 μl as a 20-fold concentrated solution according to the dilution method mentioned for the ELISA. The products are tested at 10 concentrations in duplicate from 10 000 nM to 0.3 nM with an increment of 3.
After treatment for 72 h, add 10 μl of ^14C-thymidine at 10 μCi/ml to obtain 0.1 μCi per well. The ^14C-thymidine incorporation is measured on a Micro-Beta machine (Perkin-Elmer) after 24 hours of pulse and 96 h of treatment.
All the stages of the assay are automated on BIOMEK 2000 or TECAN stations.
In general terms: Uptake of a labelled nucleoside into DNA is a usual measure of proliferation.

The target of data set [2] is T1, MET (Homo sapiens, UniProt P08581). Description: Test B: inhibition of the autophosphorylation of MET, ELISA technique (pppY1230, 1234, 1235) in MKN45 cells. Type of data set: cell-based. More on the design: endogenous in cells; host or cells: MKN45 cells. As to conditions: 1 h treatment, phosphoMET ELISA. As for the experimental part:
B) Test B: Inhibition of the Autophosphorylation of MET; ELISA Technique (pppY1230, 1234, 1235)
a) Cell lysates: Seed MKN45 cells into 96-well plates (Cell coat BD polylysine) at 20 000 cells/well in 200 μl in RPMI medium+10% FCS+1% L-glutamine. Leave to adhere for 24 hours in an incubator.
The cells are treated the day after seeding with the products at 6 concentrations in duplicate for 1 h. At least 3 control wells are treated with the same final amount of DMSO.
Product dilution: Stock at 10 mM in pure DMSO—range from 10 mM to 30 μM with an increment of 3 in pure DMSO—intermediate 1/50 dilutions in culture medium and then removal of 10 μl added directly to the cells (200 μl): final range from 10 000 to 30 nM.
At the end of the incubation, carefully remove the supernatant and rinse with 200 μl of PBS. Next, place 100 μl of lysis buffer directly in the wells on ice and incubate at 4° C. for 30 minutes. Lysis buffer: 10 mM Tris HCl, pH 7.4, 100 mM NaCl, 1 mM EDTA, 1 mM EGTA, 1% Triton X-100, 10% glycerol, 0.1% SDS, 0.5% deoxycholate, 20 mM NaF, 2 mM Na3VO4, 1 mM PMSF and cocktail of antiproteases.
The 100 μl of lysates are transferred into a V-bottomed polypropylene plate and the ELISA is performed immediately, or the plate is frozen at −80° C.
b) PhosphoMET ELISA BioSource Kit KH00281
Into each well of the kit plate, add 70 μl of kit dilution buffer+30 μl of cell lysate or 30 μl of lysis buffer for the blanks. Incubate for 2 h with gentle agitation at ambient temperature.
Rinse the wells 4 times with 400 μl of kit washing buffer. Incubate with 100 μl of anti-phospho MET antibody for 1 hour at ambient temperature.
Rinse the wells 4 times with 400 μl of kit washing buffer. Incubate with 100 μl of anti-rabbit HRP antibody for 30 minutes at ambient temperature (except for the wells of chromogen alone).
Rinse the wells 4 times with 400 μl of kit washing buffer. Introduce 100 μl of chromogen and incubate for 30 minutes in the dark at ambient temperature.
Stop the reaction with 100 μl of stop solution. Read without delay at […], 0.1 second on Wallac Victor plate reader.
Target sequence in this assay (P08581 25-1390): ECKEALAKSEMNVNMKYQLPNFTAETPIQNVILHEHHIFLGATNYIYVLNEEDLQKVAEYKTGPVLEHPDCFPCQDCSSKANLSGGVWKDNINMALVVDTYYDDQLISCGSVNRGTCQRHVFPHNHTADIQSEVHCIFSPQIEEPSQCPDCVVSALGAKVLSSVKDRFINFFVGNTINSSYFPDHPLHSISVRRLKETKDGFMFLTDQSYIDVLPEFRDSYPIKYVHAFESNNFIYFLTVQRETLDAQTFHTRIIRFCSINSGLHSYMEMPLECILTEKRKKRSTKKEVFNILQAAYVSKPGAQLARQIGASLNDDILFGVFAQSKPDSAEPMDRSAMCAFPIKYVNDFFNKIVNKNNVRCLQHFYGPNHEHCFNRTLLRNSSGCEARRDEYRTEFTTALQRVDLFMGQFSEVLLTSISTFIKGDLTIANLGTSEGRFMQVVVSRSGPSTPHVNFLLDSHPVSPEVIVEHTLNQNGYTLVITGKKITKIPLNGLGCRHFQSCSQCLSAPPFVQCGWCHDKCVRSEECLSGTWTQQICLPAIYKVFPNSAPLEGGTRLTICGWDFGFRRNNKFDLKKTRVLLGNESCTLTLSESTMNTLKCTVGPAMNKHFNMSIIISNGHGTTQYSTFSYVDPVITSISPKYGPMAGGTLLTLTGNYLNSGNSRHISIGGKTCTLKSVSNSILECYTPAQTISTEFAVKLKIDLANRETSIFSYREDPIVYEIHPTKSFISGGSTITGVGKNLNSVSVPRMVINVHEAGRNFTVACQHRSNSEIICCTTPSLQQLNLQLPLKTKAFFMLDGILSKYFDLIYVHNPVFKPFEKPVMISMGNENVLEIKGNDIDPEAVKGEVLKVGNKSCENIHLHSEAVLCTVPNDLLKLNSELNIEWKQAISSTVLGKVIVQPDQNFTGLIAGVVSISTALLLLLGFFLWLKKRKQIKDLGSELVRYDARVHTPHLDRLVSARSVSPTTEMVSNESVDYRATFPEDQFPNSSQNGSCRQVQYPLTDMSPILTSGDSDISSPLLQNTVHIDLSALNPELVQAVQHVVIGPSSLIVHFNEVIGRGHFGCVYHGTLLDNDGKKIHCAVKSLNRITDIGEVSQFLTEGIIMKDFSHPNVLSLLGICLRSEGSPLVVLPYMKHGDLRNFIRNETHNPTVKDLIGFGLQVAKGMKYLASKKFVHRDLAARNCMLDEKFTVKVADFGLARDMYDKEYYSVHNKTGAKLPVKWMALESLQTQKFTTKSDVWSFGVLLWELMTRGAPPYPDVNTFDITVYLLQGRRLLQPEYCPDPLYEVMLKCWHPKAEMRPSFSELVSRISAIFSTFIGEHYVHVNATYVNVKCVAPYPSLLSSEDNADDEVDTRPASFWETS
(In general: In an ELISA, binding on a coated surface is turned into a signal by an enzyme label.)

Data set [3] has as its target T1, MET. Kind of data set: Test A: HTRF MET assay in 96-well format. The following applies: 5 nM MET, 10 μM ATP. Type of data set: biochemical. More on the design: The His-Tev-MET (956-1390) recombinant DNA in pFastBac (Invitrogen) is transfected into insect cells; His (N, cleaved yes); Tev cleavage site (N, cleaved yes); made in house; host or cells: SF21 insect cells (baculovirus, pFastBac). As for the experimental part:
I) Expression and Purification of MET, Cytoplasmic Domain
The His-Tev-MET (956-1390) recombinant DNA in pFastBac (Invitrogen) is transfected into insect cells and, after several viral amplification stages, the final baculovirus stock is tested for the expression of the protein of interest.
After infection for 72 h at 27° C. with the recombinant virus, the SF21 cell cultures are harvested by centrifugation and the cell pellets are stored at −80° C.
The cell pellets are resuspended in lysis buffer (buffer A [50 mM HEPES, pH 7.5, 250 mM NaCl, 10% glycerol, 1 mM TECP]; + cocktail of protease inhibitors, Roche Diagnostics, without EDTA, ref. 1873580), stirred at 4° C. until the mixture is homogeneous and then lysed mechanically using a “Dounce” type apparatus.
After centrifugation, the lysis supernatant is incubated for 2 h at 4° C. with nickel chelate resin (His-Trap 6 Fast Flow™, GE HealthCare). After washing with 20 volumes of buffer A, the suspension is packed into a column, and the proteins are eluted with a gradient of buffer B (buffer A+290 mM imidazole).
The fractions comprising the protein of interest for the purpose of electrophoretic analysis (SDS PAGE) are combined, concentrated by ultrafiltration (10 kDa cut-off) and injected onto an exclusion chromatography column (Superdex™ 200, GE HealthCare) equilibrated in buffer A.
After enzymatic cleavage of the histidine tag, the protein is reinjected onto a new IMAC nickel chelate chromatography column (His-Trap 6 Fast Flow™, GE HealthCare) equilibrated in buffer A. The fractions eluted with a gradient of buffer B and comprising the protein of interest after electrophoresis (SDS PAGE) are finally combined and conserved at −80° C.
For the production of autophosphorylated protein, the previous fractions are incubated for 1 h at ambient temperature after the addition of 2 mM ATP, 2 mM MgCl2, and 4 mM Na3VO4. After the reaction has been stopped with 5 mM of EDTA, the reaction mixture is injected onto a HiPrep desalifying column (GE HealthCare) preequilibrated in buffer A+4 mM Na3VO4, and the fractions comprising the protein of interest (SDS PAGE analysis) are combined and stored at −80° C. The degree of phosphorylation is verified by mass spectrometry (LC-MS) and by peptide mapping.
A) Test A: HTRF MET Assay in 96-Well Format
MET at a final concentration of 5 nM is incubated in a final volume of 50 μl of enzymatic reaction in the presence of the test molecule (for a final concentration range of from 0.17 nM to 10 μM, 3% DMSO final concentration) in 10 mM MOPS buffer, pH 7.4, 1 mM DTT, 0.01% Tween 20. The reaction is initiated with the substrate solution to obtain final concentrations of 1 μg/ml poly-(GAT), 10 μM ATP and 5 mM MgCl2. After incubation for 10 min at ambient temperature, the reaction is stopped with a 30 μl mix so as to obtain a final solution of 50 mM Hepes, pH 7.5, 500 mM potassium fluoride, 0.1% BSA and 133 mM EDTA in the presence of 80 ng of streptavidin 61SAXLB Cis-Bio Int. and 18 ng of anti-phosphotyrosine Mab PT66-Europium Cryptate per well. After incubation for 2 hours at ambient temperature, the reading is taken at 2 wavelengths, 620 nm and 665 nm, on a reader for the TRACE/HTRF technique and the % inhibition is calculated from the 665/620 ratios.
Target sequence in this assay (P08581 956-1390): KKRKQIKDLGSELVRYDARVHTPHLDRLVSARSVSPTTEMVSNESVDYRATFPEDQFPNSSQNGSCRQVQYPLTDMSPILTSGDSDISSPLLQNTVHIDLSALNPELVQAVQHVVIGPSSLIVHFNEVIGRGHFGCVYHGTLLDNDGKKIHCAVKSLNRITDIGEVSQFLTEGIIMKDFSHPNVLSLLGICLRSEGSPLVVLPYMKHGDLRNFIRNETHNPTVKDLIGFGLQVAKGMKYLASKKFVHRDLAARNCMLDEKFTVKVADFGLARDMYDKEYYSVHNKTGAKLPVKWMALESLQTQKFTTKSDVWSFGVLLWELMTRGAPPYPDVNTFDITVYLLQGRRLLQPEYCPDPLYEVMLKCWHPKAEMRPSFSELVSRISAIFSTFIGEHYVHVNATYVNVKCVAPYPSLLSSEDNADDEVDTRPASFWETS
(In general: In TR-FRET formats the signal depends on donor and acceptor labels being close together.)

Turning to `CCN(CC)CC(=O)Nc1nc2ccc(Sc3cnc4ncccn34)cc2s1` [Example 17, N2,N2-diethyl-N-[6-(imidazo[1,2-a]pyrimidin-3-ylsulphanyl)-1,3-benzothiazol-2-yl]glycinamide], the melting point was determined as 180 °C. In data set [1], this molecule came in with a half-maximal inhibitory concentration (IC50) of less than 1000 nM. This molecule also registered a 50% inhibitory concentration (IC50) in data set [2] of less than 500 nM. For the same molecule, the IC50 in data set [3] was less than 100 nM.

`O=C(Nc1nc2ccc(Sc3cnc4ncccn34)cc2s1)C1CC1` [Example 2, N-[6-(imidazo[1,2-a]pyrimidin-3-ylsulphanyl)-1,3-benzothiazol-2-yl]cyclopropanecarboxamide]: the melting point turned out to be 258 °C. In data set [1], this molecule displayed a half-maximal inhibitory concentration (IC50) of less than 1000 nM. In addition, in data set [2], the IC50 is less than 100 nM. In addition, the half-inhibitory concentration (IC50) in data set [3] was less than 100 nM.

For the molecule `O=C(CCN1CCCC1)Nc1nc2ccc(Sc3cnc4ncccn34)cc2s1` [Example 8, N-[6-(imidazo[1,2-a]pyrimidin-3-ylsulphanyl)-1,3-benzothiazol-2-yl]-3-(pyrrolidin-1-yl)propanamide], the melting point is 247 °C. In data set [1], this molecule yielded an IC50 of less than 1000 nM. The molecule further gave an IC50 in data set [2] of less than 100 nM. For the same molecule, in data set [3], the half-maximal inhibitory concentration (IC50) is less than 100 nM.

`Nc1nc2ccc(Sc3cnc4ncc(NC5CCCCC5)cn34)cc2s1` [Example 25, 3-[(2-amino-1,3-benzothiazol-6-yl)sulphanyl]-N-cyclohexylimidazo[1,2-a]pyrimidin-6-amine]: the results for the IC50 in data set [1], in data set [2] and in data set [3] were less than 1000 nM, less than 100 nM and less than 100 nM, respectively.

For `O=C(Nc1nc2ccc([S+]([O-])c3cnc4ncccn34)cc2s1)C1CC1` (stereo not shown) [Example 6, N-[6-(imidazo[1,2-a]pyrimidin-3-ylsulphinyl)-1,3-benzothiazol-2-yl]cyclopropanecarboxamide], the melting point was greater than 260 °C. The IC50 in data set [1] was less than 1000 nM. For the same molecule, the IC50 in data set [3] is less than 500 nM.

As to `CN1CCN(CC(=O)Nc2nc3ccc(Sc4cnc5ncccn45)cc3s2)CC1` [Example 10, N-[6-(imidazo[1,2-a]pyrimidin-3-ylsulphanyl)-1,3-benzothiazol-2-yl]-2-(4-methylpiperazin-1-yl)acetamide], the IC50 is less than 1000 nM in data set [1], less than 100 nM in data set [2] and less than 100 nM in data set [3].

As to `O=C(Nc1nc2ccc(Sc3cnc4ncc(OC5CCCCC5)cn34)cc2s1)C1CC1` [Example 24, N-(6-{[6-(cyclohexyloxy)imidazo[1,2-a]pyrimidin-3-yl]sulphanyl}-1,3-benzothiazol-2-yl)cyclopropanecarboxamide], the half-maximal inhibitory concentration (IC50) is less than 1000 nM in data set [1], less than 100 nM in data set [2] and less than 100 nM in data set [3].

For the molecule `O=C(Nc1nc2ccc(Sc3cnc4ncccn34)cc2s1)C1CC1CN1CCOCC1` (stereo not drawn) [Example 13, (trans-A)-N-[6-(imidazo[1,2-a]pyrimidin-3-ylsulphanyl)-1,3-benzothiazol-2-yl]-2-(morpholin-4-ylmethyl)cyclopropanecarboxamide], the half-inhibitory concentration (IC50) in data set [1] was less than 1000 nM; in data set [2], less than 100 nM; in data set [3], less than 100 nM.

For `NCC(=O)Nc1nc2ccc(Sc3cnc4ncccn34)cc2s1` [Example 12, N-[6-(imidazo[1,2-a]pyrimidin-3-ylsulphanyl)-1,3-benzothiazol-2-yl]glycinamide dihydrochloride], the IC50 in data set [1] was less than 1000 nM; in data set [3], less than 500 nM.

As to `CN1CCN(CC(=O)Nc2nc3ccc(Sc4cnc5ncccn45)cc3s2)CC1=O` [Example 21, N-[6-(imidazo[1,2-a]pyrimidin-3-ylsulphanyl)-1,3-benzothiazol-2-yl]-2-(4-methyl-3-oxopiperazin-1-yl)acetamide], the IC50 in data set [1] was less than 1000 nM; in data set [2], less than 100 nM; in data set [3] it was less than 100 nM.

`O=C(Nc1nc2ccc(Sc3cnc4ncc(-c5cccc(F)c5)cn34)cc2s1)C1CC1` [Example 23, N-(6-{[6-(3-fluorophenyl)imidazo[1,2-a]pyrimidin-3-yl]sulphanyl}-1,3-benzothiazol-2-yl)cyclopropanecarboxamide]: the IC50 in data set [1] is less than 1000 nM; in data set [2] it was less than 100 nM; in data set [3] it was less than 100 nM.

The molecule `O=C(Nc1nc2ccc(Sc3cnc4ncccn34)cc2s1)c1ccccc1` [Example 9, N-[6-(imidazo[1,2-a]pyrimidin-3-ylsulphanyl)-1,3-benzothiazol-2-yl]benzamide] returned a melting point greater than 260 °C. The same molecule gave a half-maximal inhibitory concentration (IC50) in data set [1] of less than 1000 nM. Further, in data set [3], the IC50 was less than 500 nM.

Turning to `O=C(Nc1nc2ccc(Sc3cnc4ncccn34)cc2s1)C1CC1CN1CCOCC1` (stereo not drawn) [Example 14, (trans-B)-N-[6-(imidazo[1,2-a]pyrimidin-3-ylsulphanyl)-1,3-benzothiazol-2-yl]-2-(morpholin-4-ylmethyl)cyclopropanecarboxamide], the 50% inhibitory concentration (IC50) in data set [1] is less than 1000 nM; in data set [3], less than 100 nM.
